The results in this text go back to ChEMBL document CHEMBL4431311, “Endothelin-Receptor Antagonists beyond Pulmonary Arterial Hypertension: Cancer and Fibrosis” (J Med Chem, 2016).

For assay [1], the target named is T1, Endothelin-1 receptor (Homo sapiens) (UniProt P25101).
T1 sequence (whole entry): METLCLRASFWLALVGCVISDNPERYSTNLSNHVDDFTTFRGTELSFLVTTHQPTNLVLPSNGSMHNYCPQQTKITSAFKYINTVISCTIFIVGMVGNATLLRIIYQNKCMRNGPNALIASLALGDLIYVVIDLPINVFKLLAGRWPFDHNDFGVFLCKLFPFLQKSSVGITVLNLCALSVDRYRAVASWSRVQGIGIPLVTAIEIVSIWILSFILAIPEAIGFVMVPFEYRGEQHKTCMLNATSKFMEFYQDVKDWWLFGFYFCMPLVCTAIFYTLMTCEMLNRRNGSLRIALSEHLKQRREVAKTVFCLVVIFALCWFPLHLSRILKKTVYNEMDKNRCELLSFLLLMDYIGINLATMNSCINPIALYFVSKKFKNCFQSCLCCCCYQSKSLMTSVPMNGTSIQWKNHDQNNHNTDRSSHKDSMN
Description: Binding affinity to ET-A receptor (unknown origin) assessed as dissociation half life.

Assay [2] addresses T2, Endothelin-1 receptor (Homo sapiens, UniProt P25101).
T2 sequence (P25101 whole entry): T1 sequence (whole entry)
Put plainly: Displacement of [125I]ET-1 from human ET-A receptor expressed in CHO cell membrane incubated for 2 hrs. Type of assay: cell membranes. In general terms: Loss of bound radioactivity is the signal in a displacement assay; it reports binding, not function.

Assay [3] has as its target T2, Endothelin-1 receptor. Put plainly: Displacement of [125I]ET-1 from ET-A receptor in human SK-N-MC cells incubated for 4 hrs by gamma counting method. Type of assay: cell-based.
Assay [4] has as its target T3, Endothelin receptor type B (Homo sapiens, UniProt P24530).
T3 sequence (P24530 whole entry): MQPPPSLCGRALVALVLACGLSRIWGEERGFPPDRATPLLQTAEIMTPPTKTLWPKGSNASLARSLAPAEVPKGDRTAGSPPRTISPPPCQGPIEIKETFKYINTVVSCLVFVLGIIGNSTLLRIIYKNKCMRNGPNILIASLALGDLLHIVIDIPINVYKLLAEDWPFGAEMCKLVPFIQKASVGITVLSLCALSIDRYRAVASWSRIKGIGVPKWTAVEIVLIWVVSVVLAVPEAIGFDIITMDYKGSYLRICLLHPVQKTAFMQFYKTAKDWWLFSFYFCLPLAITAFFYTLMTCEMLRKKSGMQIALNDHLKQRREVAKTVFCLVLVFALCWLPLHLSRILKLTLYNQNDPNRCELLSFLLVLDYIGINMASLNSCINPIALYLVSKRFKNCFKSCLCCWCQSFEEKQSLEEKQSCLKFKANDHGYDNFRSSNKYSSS
Put plainly: Displacement of [125I]ET-1 from ET-B receptor in human Girardi heart cells incubated for 4 hrs by gamma counting method. Type of assay: cell-based.

On to `COc1ccccc1Oc1c(NS(=O)(=O)c2ccc(C(C)(C)C)cc2)nc(-c2ncccn2)nc1OCCO`, for which, in assay [1], the T1/2 stood at 1 min. As to `Cc1cc(C)cc(C(=O)N(C)[C@H](Cc2ccc(-c3ccccc3)cc2)C(=O)N[C@@H](Cc2c[nH]c3ccccc23)C(=O)O)c1`, the IC50 (commonly the midpoint of a concentration-inhibition curve) at Endothelin-1 receptor [2] came out at 94 nM. This counts as double-digit nanomolar. Consider `CCCC[C@H](NC(=O)[C@@H](Cc1cn(C(=O)OC)c2ccccc12)NC(=O)[C@@H](CC(C)(C)C)NC(=O)N1[C@H](C)CCC[C@@H]1C)C(=O)O`, for which the IC50 on Endothelin-1 receptor [3] was 1300 nM; in assay [4], 1.2 nM.
